In patent publication US9345677B2, “Compositions, methods and kits relating to HER-2 cleavage” (Incyte Corporation, priority 2003, dated 2016):

Legend:
Her-2 sheddase = experiment: Her-2 ECD ELISA of BT474 culture supernatants (Her-2 sheddase inhibition); assay type: cell-based, human
Protocol: BT474 cells were seeded in 100 μL of RPMI medium containing 10% FCS+10 μg/ml insulin in 96 well plates at 2×10^4 cells/well. The cells were incubated overnight at 37° C. The following morning, the media was removed and 100 μL of fresh media with or without compound was added back. The cells were incubated for about 72 hours at 37° C. After about 72 hours, the supernatants were removed. The samples were diluted 1:10 and analyzed using a commercially available Her-2 ELISA kit per manufacturer's instructions (Oncogene Research, catalog #QIA 10).
These inhibitors were added, at varying concentrations, to cultures of BT474 cells, a Her-2 overexpressing breast cancer cell line known to enzymatically process cell surface Her-2 (p185) and release the extracellular domain (ECD) into the culture supernatant, i.e., shedding of ECD. After 72 hours, cell culture supernatants were harvested and assayed for Her-2 ECD content using an ELISA assay.

ADAM10 = target: T1, ADAM10 (Homo sapiens, UniProt O14672); experiment: ADAM10 fluorogenic peptide biochemical assay
T1 construct: purchased R&D Systems 936-AD
T1 sequence (O14672 214-748): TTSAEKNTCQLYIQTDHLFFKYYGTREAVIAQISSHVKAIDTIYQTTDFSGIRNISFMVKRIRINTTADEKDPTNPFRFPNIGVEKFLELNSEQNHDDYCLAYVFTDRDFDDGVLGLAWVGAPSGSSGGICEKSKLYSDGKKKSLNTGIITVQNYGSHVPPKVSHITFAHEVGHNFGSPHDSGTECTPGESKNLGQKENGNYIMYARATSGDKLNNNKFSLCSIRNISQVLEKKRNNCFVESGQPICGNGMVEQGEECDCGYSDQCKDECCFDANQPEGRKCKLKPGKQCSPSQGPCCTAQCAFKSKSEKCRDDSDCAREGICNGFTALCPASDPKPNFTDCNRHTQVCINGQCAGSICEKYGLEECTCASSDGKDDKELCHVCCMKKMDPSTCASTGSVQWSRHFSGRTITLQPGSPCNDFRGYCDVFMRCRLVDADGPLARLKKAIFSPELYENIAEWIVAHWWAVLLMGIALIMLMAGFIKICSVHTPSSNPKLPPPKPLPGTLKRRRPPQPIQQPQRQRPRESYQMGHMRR
Protocol: 5 mM Compound stock was prepared in DMSO. Compound plate was prepared by 2-fold dilution for 11-point curve, with highest concentration of 500 μM. 1 μL of compound in DMSO was transferred from compound plate to the assay plate. Enzyme solution was prepared in assay buffer with a concentration of 100 ng/50 μL. Substrate ((7-methoxycoumarin-4-yl)-acetyl-Pro-Leu-Ala-Gln-Ala-Val-(3-[2,4-dinitrophenyl]-L-2,3-diaminopropionyl)-Arg-Ser-Ser-Ser-Arg-NH2 (SEQ ID NO:48)) solution was prepared in assay buffer with a concentration of 20 μM. 50 μL of enzyme solution was added to the assay plate. The assay plate was incubated for 5 minutes. 50 μL of substrate solution was then added to the assay plate. The plate was protected from light and incubated at 37° C. for 4 hours. The reaction was stopped by adding 10 μL of 500 mM EDTA solution. The plate was read on a plate reader with excitation of 320 nm and emission of 405 nm.
Source of enzymes for biochemical assays: Except for ADAM17 and MT1-MMP, all recombinant human MMPs and ADAMs were obtained from R&D Systems (Minneapolis, Minn.). […]
In general, 5 mM compound stock was prepared in DMSO. […] The plate was read on a plate reader with excitation of 320 nm and emission of 405 nm. Percentage of inhibition was calculated for each concentration and IC50 value was generated from curve fitting. […]

IC50 (Her-2 sheddase): 198 to 250 nM
IC50 (ADAM10): 98 nM
Compound: Cc1cc([N+](=O)[O-])ccc1N1CCN(C(=O)[C@@H]2[C@@H](C(=O)NO)CC3(CC3)CN2C)CC1 [Compound 5, (6S,7S)-N-hydroxy-5-methyl-6-{[4-(2-methyl-4-nitrophenyl)piperazin-1-yl]-carbonyl}-5-azaspiro[2.5]octane-7-carboxamide]
